Consider 1 molecule from patent EP4722231A1, “BIOSYNTHESIS METHOD FOR BROAD-SPECTRUM ANTIVIRAL POLYPEPTIDE” (Shanxi Jinbo Bio-Pharmaceutical Co., Ltd., priority 2023, dated 2025).

The test system of test [1] is BA.2.75 pseudovirus. Conditions: read-out: Inhibitory activity, IC50 (nM) BA.2.75, Caco2 target cells.
The subject of test [2] is EG.5 pseudovirus. Conditions: read-out: Inhibitory activity, IC50 (nM) EG.5, Caco2 target cells.
Test [3] has as its system XBB.1.5 pseudovirus. Conditions: read-out: Inhibitory activity, IC50 (nM) XBB.1.5, Caco2 target cells.
Test [4] deals with BA.2.86 pseudovirus. Conditions: read-out: Inhibitory activity, IC50 (nM) BA.2.86, Caco2 target cells.
The subject of test [5] is BA.2 pseudovirus. Conditions: read-out: Inhibitory activity, IC50 (nM) BA.2, Caco2 target cells.

The IC50 is the concentration that gives 50% inhibition.

As to `CC[C@H](C)[C@H](NC(=O)[C@H](C)NC(=O)[C@H](CCC(=O)O)NC(=O)[C@H](CCC(=O)O)NC(=O)[C@H](CC(C)C)NC(=O)[C@H](CCCCN)NC(=O)[C@H](CCCCN)NC(=O)[C@H](CCSC)NC(=O)[C@H](CCC(=O)O)NC(=O)[C@H](Cc1ccc(O)cc1)NC(=O)[C@H](CCC(=O)O)NC(=O)[C@H](CC(C)C)NC(=O)[C@H](CC(=O)O)NC(=O)[C@H](CC(C)C)NC(=O)[C@H](Cc1ccccc1)NC(=O)[C@@H](NC(=O)[C@@H](NC(=O)[C@H](CC(N)=O)NC(=O)[C@@H](NC(=O)[C@H](CCC(N)=O)NC(=O)[C@H](CC(=O)O)NC(=O)[C@H](CC(C)C)NC(=O)[C@H](CO)NC(C)=O)[C@@H](C)CC)C(C)C)[C@@H](C)O)C(=O)N[C@@H](CCCCN)C(=O)N[C@@H](CCCCN)C(=O)N[C@@H](CC(C)C)C(=O)N[C@@H](CCC(=O)O)C(=O)N[C@@H](CCC(=O)O)C(=O)N[C@@H](CO)C(=O)N[C@@H](Cc1ccc(O)cc1)C(=O)N[C@H](C(=O)N[C@@H](CC(=O)O)C(=O)N[C@@H](CC(C)C)C(=O)N[C@@H](CCCCN)C(=O)N[C@@H](CCC(=O)O)C(=O)N[C@@H](CC(C)C)C(N)=O)[C@@H](C)CC` [EK1], the IC50 in test [1] was 438 nM; in test [2], 401 nM; in test [3], 291 nM; in test [4] it was 392 nM; in test [5], 228 nM.
